Article PMC11653397, “Elucidating the Metabolism of Chiral PCB95 in Wildtype and Transgenic Mouse Models with Altered Cytochrome P450 Enzymes Using Intestinal Content Screening” (Chemical Research in Toxicology, 2024)
Values joined by “and” are separate entries in the source; they are usually repeats but may differ in a detail not shown here. Equal values may be shown once. Read-outs that look alike come from different tables or passages of the source.

Legend:
[1] = GC-MS/MS levels of PCB95 and total hydroxylated metabolites in intestinal content of orally exposed mice; details: for concentration at 24 h: mouse, intestinal content (distal colon and rectum), po, 1 mg/kg
Method: The intestinal content samples used in this study were generated as part of a published study of the atropselective disposition of PCB95 and its hydroxylated metabolites in mice.[48] […] This PCB dose is frequently used in PCB developmental neurotoxicity studies in rodent models.[21],[49]−[52] Blank tissue samples to assess the background contamination with PCB95 were generated in parallel by administering corn oil alone to mice (1–3 mice per group). The animals were euthanized 24 h after exposure, and intestinal content samples from the dissected distal colon and rectum were collected. Samples were stored at −80 °C in separate plastic bags and shipped on dry ice to the University of Iowa for analysis.
PCB95 and total OH-PCB95 metabolite levels were determined in intestinal content samples after deconjugation of sulfate and glucuronide conjugates using published methods with modifications.[53] Briefly, intestinal content samples (50 ± 22 mg, n = 38) were homogenized with a TissueRuptor (Qiagen, Hilden, Germany) in 3 mL of 0.2 M sodium acetate buffer (pH 5) in glass tubes and spiked with 4-PCB52 sulfate (100 ng in DMSO) as a surrogate standard. After adding 50 μL of sulfatase (type H-2 from Helix pomatia, Sigma-Aldrich, Burlington, MA, USA), the samples were kept at 37 °C for 16 h in a shaking water bath. Samples were quenched with 1 mL of 6 M HCl, and the surrogate standards (50 ng of PCB117 in isooctane and 50 ng of 4′-159 in methanol) were added to the incubation system. Subsequently, 5 mL of 2-propanol and 5 mL of a 1:1 hexane–MTBE mixture (v/v) were added. The samples were inverted for 5 min and centrifuged at 1690g for 5 min to facilitate the phase separation. Next, the organic phases were transferred to new glass tubes with 3 mL of 1% KCl solution, the aqueous phases were re-extracted with 3 mL of hexane, and the organic phases were combined with the above extract. After inverting and centrifugation, the organic phases were collected, and the aqueous KCl phases were re-extracted with 3 mL of hexane. The combined extracts were evaporated to near dryness using a Savant SpeedVac SPD210 vacuum concentrator (Thermo Scientific, Waltham, MA, USA) coupled with an RVT5105 refrigerated vapor trap (Thermo Scientific, Waltham, MA, USA), and each sample was reconstituted with 0.5 mL of hexane.
Five drops of methanol and 0.5 mL of diazomethane (about 5 mmol) in diethyl ether were added to the intestinal content extracts to derivatize the OH-PCBs.[43] The samples were stored at 4 °C for approximately 16 h for derivatization, and excess diazomethane was removed under a gentle stream of nitrogen in a fume hood. The extract was reconstituted to 0.5 mL of dichloromethane and was loaded onto a glass SPE cartridge filled with 2 g of acidified silica gel (silica gel/H2SO4, 2:1, w/w) with 0.2 g of deactivated silica gel on the bottom.[14] The PCB and metabolites were eluted from the SPE cartridge with 14 mL of dichloromethane; the eluent was concentrated with a Savant SpeedVac SPD210 vacuum concentrator (Thermo Scientific) to near dryness, and the solvent was exchanged to 4 mL of hexane. The extracts were treated with 4 mL of concentrated sulfuric acid for further lipid removal.[14] The organic phase was concentrated to near dryness with a Savant SpeedVac SPD210 vacuum concentrator (Thermo Scientific) and spiked with an internal standard (50 ng of PCB204 in isooctane) for gas chromatographic quantification of PCB95 and its hydroxylated metabolites (as methylated derivatives).
PCB95 and metabolite determinations were conducted on an Agilent 7890B gas chromatograph equipped with an Agilent 7000D Triple Quad and an Agilent 7693 autosampler in the multiple reaction monitoring setting (GC–MS/MS).[14] Gas chromatographic separations were performed with an SPB-Octyl capillary column (30 m length, […], 0.25 μm film thickness; Supelco, Bellefonte, PA, USA).

[2] = mouse hepatic microsomes; cited from earlier work
CYP2A6 = system: CYP2A6; set-up: method as in PMID 30576102, PMID 27989147; details: pooled human liver microsomes, recombinant cytochrome P450 enzymes; cited from earlier work
[3] = set-up: method as in doi:10.1016/0045-6535(75)90032-6; details: mice exposed orally to PCB95; cited from earlier work
[4] = set-up: method as in doi:10.1016/0045-6535(75)90032-6; details: rats exposed orally to PCB95; cited from earlier work
[5] = rat hepatic microsomes; cited from earlier work
[6] = Atropselective GC-ECD analysis (enantiomeric fraction) of PCB95 in intestinal content; format: in vivo, mice; details: for Enantiomeric fraction (EF) of PCB95 residues in the intestinal content: EF=AE1/(AE1+AE2), racemic standard EF 0.498±0.004, oral 1.0 mg/kg bw, 24 h
Method: Atropselective analyses of PCB95 were performed using an Agilent 7890A gas chromatograph with a ^63Ni-μECD detector and a Chirasil-Dex CB capillary column (25 m length, 250 μm inner diameter, 0.25 μm film thickness; Agilent, Santa Clara, CA, USA).[52] The following temperature program was used: 50 °C, hold for 1 min, 10 °C/min to 150 °C, hold for 65 min, 15 °C/min to 200 °C, and hold for 15 min. The injector and detector temperatures were 250 °C. Helium was used as carrier gas with a flow rate of 3.0 mL/min; argon-methane 5% was used as makeup gas with a 60 mL/min flow rate. The enantiomeric fraction (EF) values were calculated with the valley drop method[55] as EF = AE1/(AE1 + AE2), where AE1 and AE2 are the peak area of the first (E1) and the second eluting (E2) atropisomers, respectively.

[7] = female, CYP2A6-transgenic/Cyp2abfgs-null (KI)
[8] = male, CYP2A6-transgenic/Cyp2abfgs-null (KI)
[9] = two-way ANOVA with Bonferroni correction

SMILES	concentration at 24 h [1, 7] [ng/g]	concentration at 24 h ([1]; female, Cyp2abfgs-null (KO)) [ng/g]	concentration at 24 h ([1]; female) [ng/g]	concentration at 24 h [1, 8] [ng/g]	concentration at 24 h ([1]; male, Cyp2abfgs-null (KO)) [ng/g]	concentration at 24 h ([1]; male) [ng/g]	Rank among PCB95 metabolites formed by liver microsomes [2]	other results
Oc1c(Cl)cc(Cl)c(-c2cc(Cl)ccc2Cl)c1Cl [3-103, 2,4,6-trichloro-3-(2,5-dichlorophenyl)phenol]	17 ± 11	14 ± 7	14 ± 6	6 ± 6	6 ± 2	7 ± 4		
Oc1cc(Cl)c(-c2c(Cl)ccc(Cl)c2Cl)cc1Cl [4'-95, 2,2′,3,5′,6-pentachlorobiphenyl-4′-ol]	764 ± 831	414 ± 254	356 ± 192	298 ± 240	447 ± 159	452 ± 269	minor metabolites	Rank among PCB95 metabolites formed by human liver microsomes and recombinant P450 (CYP2A6) (CYP2A6): major metabolite
Oc1c(O)c(Cl)c(-c2cc(Cl)ccc2Cl)c(Cl)c1Cl [4,5-95, 3,4,6-trichloro-5-(2,5-dichlorophenyl)benzene-1,2-diol]	1670 ± 1290	527 ± 255	1090 ± 492	570 ± 376	1030 ± 507	1410 ± 574		Rank among OH-PCB95 metabolites in intestinal content ([1]; all intestinal content samples, all exposure groups): major metabolite
Oc1cc(Cl)c(-c2cc(Cl)ccc2Cl)c(Cl)c1Cl [4-95, 2,2′,3,5′,6-pentachlorobiphenyl-4-ol]	434 ± 352	192 ± 70	248 ± 109	160 ± 134	177 ± 68	238 ± 134	minor metabolites	
Oc1cc(Cl)c(Cl)c(-c2cc(Cl)ccc2Cl)c1Cl [5-95, 2,2′,3,5′,6-pentachlorobiphenyl-5-ol]	934 ± 790	359 ± 147	544 ± 295	300 ± 256	333 ± 123	424 ± 279	major PCB95 metabolite	Rank among PCB95 metabolites in feces [3]: major metabolite; Rank among PCB95 metabolites in feces [4]: major metabolite; Rank among PCB95 metabolites formed by hepatic microsomes [5]: major PCB95 metabolite
Clc1ccc(Cl)c(-c2c(Cl)ccc(Cl)c2Cl)c1 [PCB95, 2,2′,3,5′,6-pentachlorobiphenyl]	110 ± 95	26 ± 20	26 ± 18	33 ± 48	139 ± 265	39 ± 40		PCB95 levels in the intestinal content, FKI vs MKI mice [1, 9]: higher; PCB95 levels in the intestinal content, MKO vs MKI mice [1, 9]: significantly higher; Enantiomeric fraction (EF) of PCB95 residues in the intestinal content ([6]; FKI (n=4)): 0.44±0.03; Enantiomeric fraction (EF) of PCB95 residues in the intestinal content ([6]; FKO (n=6)): 0.44±0.05; Enantiomeric fraction (EF) of PCB95 residues in the intestinal content ([6]; FWT (n=6), 1 mg/kg): 0.39±0.05 and 0.39; Enantiomeric fraction (EF) of PCB95 residues in the intestinal content ([6]; MKI (n=5)): 0.40±0.03; Enantiomeric fraction (EF) of PCB95 residues in the intestinal content ([6]; MKO (n=7), 1 mg/kg): 0.45±0.04 and 0.45; Enantiomeric fraction (EF) of PCB95 residues in the intestinal content ([6]; MWT (n=5)): 0.41±0.05
Clc1ccc(Cl)c(-c2c(Cl)ccc(Cl)c2Cl)c1 [aS-PCB95]								Atropisomeric enrichment in intestinal content ([6]; all intestinal content samples, irrespective of sex and genotype): enriched
